Measured values reported in patent US11046697B2, “Compounds and compositions useful for treating disorders related to NTRK” (BLUEPRINT MEDICINES CORPORATION, priority 2015, dated 2021).
Read-outs that look alike come from different tables or passages of the source.

What was measured:
wild type NTRK1 enzyme = biological target: T1, wild type NTRK1 enzyme (Homo sapiens, UniProt P04629); assay: NTRK1 Wild Type Assay at 1 mM ATP; assay type: biochemical
T1 construct: purchased BPS Bioscience 40280
Description: NTRK1 Wild Type Assay at 1 mM ATP
The reaction was stopped by the addition of 70 μL of Stop buffer (100 mM HEPES pH 7.5, 0.015% Brij 35, 35 mM EDTA and 0.2% of Coating Reagent 3 (Caliper Lifesciences)). The plate was then read on a Caliper EZReader 2 (protocol settings: −1.7 psi, upstream voltage −500, downstream voltage −3000, post sample sip 35s).

[1] = tested on: KM12 wild type colon carcinoma cell line harboring the TPM3-NTRK1 fusion protein; assay: NTRK wild type cellular assay (CellTiter-Glo growth inhibition); assay type: cell-based; settings: for IC50: 72 hr, CellTiter-Glo, read-out: KM12 (WT) IC50
Summary of the method: (§1)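 KM12 (TPM3-NTRK1 fusion) or KM12 Cliff (G595R) cells at 1000 cells/well in 10% FBS media were dosed with compounds at varying concentrations in duplicate after overnight plating.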

[2] = tested on: KM12 Cliff (G595R) cell line; assay: NTRK G595R mutant cellular assay (CellTiter-Glo growth inhibition); assay type: cell-based; settings: for IC50: 72 hr, CellTiter-Glo
Summary of the method: as §1

[3] = 1 mM ATP, read-out: Enz NTRK1 IC50

T1 sequence (P04629 440-796 limits assumed): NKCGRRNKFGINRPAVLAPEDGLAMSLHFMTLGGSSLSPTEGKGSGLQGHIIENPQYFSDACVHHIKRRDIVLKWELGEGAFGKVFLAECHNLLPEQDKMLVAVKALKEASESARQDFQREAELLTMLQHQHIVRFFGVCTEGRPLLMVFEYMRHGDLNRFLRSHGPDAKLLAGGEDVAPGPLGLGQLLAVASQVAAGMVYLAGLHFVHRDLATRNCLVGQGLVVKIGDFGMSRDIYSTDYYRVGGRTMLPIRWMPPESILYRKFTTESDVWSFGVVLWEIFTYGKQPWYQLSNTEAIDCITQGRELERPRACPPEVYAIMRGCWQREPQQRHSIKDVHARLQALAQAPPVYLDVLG

Row | SMILES | IC50 (wild type NTRK1 enzyme; [3]) | IC50 ([1]; Homo sapiens, KM12, 72 h) | IC50 ([2]; Homo sapiens, KM12, 72 h) | IC50 [1] | IC50 [2] | IC50 (wild type NTRK1 enzyme; wild-type NTRK enzyme, read-out: NTRK wt Enzyme Assay IC50) | GI50 ([1]; wild-type NTRK fusion cells, read-out: NTRK wt Cellular GI50) | GI50 ([2]; G595R mutant NTRK fusion cells)
1 | O=C(c1n[nH]c2ncnc(N[C@@H]3CCC[C@H]3O)c12)N1CCC[C@@H]1c1cc(F)ccc1F [Compound 45, ((R)-2-(2,5-difluorophenyl)pyrrolidin-1-yl)(4-(((1R,2R)-2-hydroxycyclopentyl)amino)-1H-pyrazolo[3,4-d]pyrimidin-3-yl)methanone] | < 10 nM | < 10 nM | < 10 nM |  |  |  |  | 
2 | O=C(c1n[nH]c2ncnc(NC3CC[C@@H](O)C[C@H]3O)c12)N1C[C@@H](F)C[C@@H]1c1cc(F)ccc1F (stereo partly drawn) [Compound 191] | < 10 nM |  |  | 10 to 100 nM | 10 to 100 nM |  |  | 
3 | O=C(c1n[nH]c2ncnc(N[C@@H]3COC[C@@H](O)[C@H]3O)c12)N1C[C@@H](F)C[C@@H]1c1cc(F)ccc1Cl [Compound 222] | < 10 nM | 10 to 100 nM | 10 to 100 nM |  |  |  |  | 
4 | O=C(c1n[nH]c2ncnc(N[C@@H]3CCOC[C@H]3O)c12)N1C[C@@H](F)C[C@@H]1c1cc(F)cnc1Cl [Compound 202] | < 10 nM | 10 to 100 nM | 10 to 100 nM |  |  |  |  | 
5 | O=C(c1n[nH]c2ncnc(N[C@@H]3CCCC(F)(F)[C@H]3O)c12)N1C[C@@H](F)C[C@@H]1c1cncc(F)c1 [Compound 231] | 10 to 100 nM | 10 to 100 nM | 100 to 1000 nM |  |  |  |  | 
6 | O=C(c1n[nH]c2ncnc(N[C@@H]3C[C@@H](C(F)F)C[C@H]3O)c12)N1C[C@@H](F)C[C@@H]1c1cc(F)ccc1F [Compound 226, (4-(((1R,2R,4R)-4-(difluoromethyl)-2-hydroxycyclopentyl)amino)-1H-pyrazolo[3,4-d]pyrimidin-3-yl)((2R,4S)-2-(2,5-difluorophenyl)-4-fluoropyrrolidin-1-yl)methanone] | < 10 nM | < 10 nM | < 10 nM |  |  |  |  | 
7 | O=C(c1n[nH]c2ncnc(N[C@@H]3CC[C@@H](O)[C@H]3O)c12)N1C[C@@H](F)C[C@@H]1c1cccc(F)c1F [Compound 176] | < 10 nM |  |  | 10 to 100 nM | 10 to 100 nM |  |  | 
8 | O=C(c1n[nH]c2ncnc(NC3CCOCC3O)c12)N1CC(F)CC1c1cc(F)cc(F)c1 (stereo not drawn) [Compound 174] | < 10 nM |  |  | < 10 nM | < 10 nM |  |  | 
9 | CC(C)NC(=O)C1CCC(n2c(NC(=O)c3ccc(F)cc3)nc3ccc(CN4CCC(C(C)(C)O)CC4)cc32)CC1 (stereo not drawn) [TSR-011] |  |  |  |  |  | 2.3 nM | 32 nM | 12000 nM
10 | O=C(NCc1cc(F)ccc1F)c1n[nH]c2ncnc(N[C@@H]3C[C@@H](F)C[C@H]3O)c12 (relative stereo) [Compound 17] | 10 to 100 nM | 10 to 100 nM | 100 to 1000 nM |  |  |  |  | 
11 | O=C(c1n[nH]c2ncnc(N[C@@H]3CC[C@@H](O)[C@H]3O)c12)N1C[C@@H](F)C[C@@H]1c1cc(F)ccc1Cl [Compound 195] | < 10 nM | < 10 nM | < 10 nM |  |  |  |  | 
12 | CN(Cc1cccc(Cl)c1)C(=O)c1n[nH]c2ncnc(N[C@@H]3CC[C@@H](O)[C@H]3O)c12 [Compound 137] | 10 to 100 nM |  |  | 10 to 100 nM | 10 to 100 nM |  |  | 
13 | N#C[C@H]1C[C@@H](O)[C@H](Nc2ncnc3[nH]nc(C(=O)N4C[C@@H](F)C[C@@H]4c4cncc(F)c4)c23)C1 [Compound 166] | < 10 nM |  |  | 100 to 1000 nM | 100 to 1000 nM |  |  | 
14 | CN(Cc1cc(F)cn(C)c1=O)C(=O)c1n[nH]c2ncnc(N[C@@H]3CCC[C@H]3O)c12 [Compound 136] | < 10 nM | 10 to 100 nM | 10 to 100 nM |  |  |  |  | 
15 | O=C(c1n[nH]c2ncnc(N[C@@H]3COC[C@H]3O)c12)N1C[C@@H](F)C[C@@H]1c1cc(F)ccc1F [Compound 78] | < 10 nM | < 10 nM | 10 to 100 nM |  |  |  |  | 
16 | O=C(c1n[nH]c2ncnc(N[C@@H]3CCC[C@@H](O)[C@H]3O)c12)N1C[C@@H](F)C[C@@H]1c1cc(F)ccc1F [Compound 106] | < 10 nM | < 10 nM | < 10 nM |  |  |  |  | 
17 | COc1cc(F)cc(CN(C)C(=O)c2n[nH]c3ncnc(N[C@@H]4CC[C@@H](O)[C@H]4O)c23)c1 [Compound 48] | 10 to 100 nM | 10 to 100 nM | 100 to 1000 nM |  |  |  |  | 
18 | COc1ccc(F)cc1CNC(=O)c1n[nH]c2ncnc(N[C@@H]3COCC[C@H]3O)c12 [Compound 24] | 10 to 100 nM | 100 to 1000 nM | 100 to 1000 nM |  |  |  |  | 
19 | O=C(c1n[nH]c2ncnc(N[C@@H]3C=C[C@@H](O)[C@H]3O)c12)N1C[C@@H](F)C[C@@H]1c1cc(F)cnc1Cl [Compound 194] | 10 to 100 nM |  |  | 10 to 100 nM | 10 to 100 nM |  |  | 
20 | O=C(c1n[nH]c2ncnc(N[C@@H]3C=C[C@@H](O)[C@H]3O)c12)N1C[C@@H](F)C[C@@H]1c1cc(F)cc(Cl)c1 [Compound 192] | < 10 nM |  |  | 10 to 100 nM | 10 to 100 nM |  |  | 
21 | O=C(c1n[nH]c2ncnc(N[C@H]3[C@H](O)[C@H](O)[C@@H]4C[C@@H]43)c12)N1C[C@@H](F)C[C@@H]1c1ccccc1 [Compound 153] | 10 to 100 nM |  |  | 10 to 100 nM | 10 to 100 nM |  |  | 

Row | SMILES | IC50 (wild type NTRK1 enzyme; [3]) | IC50 ([1]; Homo sapiens, KM12, 72 h) | IC50 ([2]; Homo sapiens, KM12, 72 h) | IC50 [1] | IC50 [2] | IC50 (wild type NTRK1 enzyme; wild-type NTRK enzyme, read-out: NTRK wt Enzyme Assay IC50) | GI50 ([1]; wild-type NTRK fusion cells, read-out: NTRK wt Cellular GI50) | GI50 ([2]; G595R mutant NTRK fusion cells)
22 | O=C(c1n[nH]c2ncnc(N[C@H]3[C@H](O)[C@H](O)[C@@H]4C[C@@H]43)c12)N1CC(F)(F)C[C@@H]1c1cc(F)ccc1F [Compound 112] | 10 to 100 nM | 10 to 100 nM | 100 to 1000 nM |  |  |  |  | 
23 | CN(Cc1cc(F)cnc1Cl)C(=O)c1n[nH]c2ncnc(NC3CC(F)CC3O)c12 (stereo not drawn) [Compound 151] | 10 to 100 nM |  |  | 10 to 100 nM | 10 to 100 nM |  |  | 
24 | CN(Cc1cc(F)ccc1OC(F)(F)F)C(=O)c1n[nH]c2ncnc(NC3COCC(O)C3O)c12 (stereo not drawn) [Compound 228] | 10 to 100 nM |  |  | 10 to 100 nM | 10 to 100 nM |  |  | 
25 | O=C(c1n[nH]c2ncnc(N[C@H]3[C@H](O)[C@H](O)[C@@H]4C[C@@H]43)c12)N1C[C@@H](F)C[C@@H]1c1cc(F)cc(F)c1 [Compound 188] | < 10 nM | < 10 nM | < 10 nM |  |  |  |  | 
26 | O=C(c1n[nH]c2ncnc(N[C@H]3[C@H](O)[C@H](O)[C@@H]4C[C@@H]43)c12)N1C[C@@H](F)C[C@@H]1c1cc(F)ccc1OC(F)(F)F [Compound 242] | < 10 nM |  |  | < 10 nM | < 10 nM |  |  | 
27 | COc1c(F)cc(F)cc1C1CC(F)CN1C(=O)c1n[nH]c2ncnc(NC3CCOCC3O)c12 (stereo not drawn) [Compound 218] | < 10 nM |  |  | < 10 nM | < 10 nM |  |  | 
28 | O=C(c1n[nH]c2ncnc(NC3COCC(O)C3O)c12)N1CC(F)CC1c1cc(F)cc(Cl)c1 (stereo not drawn) [Compound 223] | < 10 nM |  |  | 10 to 100 nM | 10 to 100 nM |  |  | 
29 | N#C[C@H]1C[C@H](c2cc(F)ccc2F)N(C(=O)c2n[nH]c3ncnc(N[C@@H]4COCC[C@H]4O)c23)C1 [Compound 100] | 10 to 100 nM | 10 to 100 nM | 100 to 1000 nM |  |  |  |  | 
30 | O=C(NCc1cc(F)ccc1F)c1n[nH]c2ncnc(NC3CCC(O)C3O)c12 (stereo not drawn) [Compound 9] | 10 to 100 nM |  |  | 10 to 100 nM | 100 to 1000 nM |  |  | 
31 | CN(Cc1cc(F)ccc1C(F)(F)F)C(=O)c1n[nH]c2ncnc(NC3COCC(O)C3O)c12 (stereo not drawn) [Compound 209] | < 10 nM |  |  | 10 to 100 nM | 10 to 100 nM |  |  | 
32 | O=C(c1n[nH]c2ncnc(N[C@H]3[C@H](O)[C@H](O)[C@@H]4C[C@@H]43)c12)N1C[C@@H](F)C[C@@H]1c1cc(F)ccc1F [Compound 104] | < 10 nM | < 10 nM | < 10 nM |  |  |  |  | 
33 | CN(Cc1cc(F)cc(F)c1F)C(=O)c1n[nH]c2ncnc(N[C@@H]3COC[C@@H](O)[C@H]3O)c12 [Compound 164] | 10 to 100 nM | 10 to 100 nM | 10 to 100 nM |  |  |  |  | 
34 | O=C(c1n[nH]c2ncnc(NC3CCCC(O)C3O)c12)N1CC(F)CC1c1cccc(F)c1 (stereo not drawn) [Compound 168] | < 10 nM |  |  | < 10 nM | < 10 nM |  |  | 
35 | O=C(NCc1cc(F)cc(F)c1F)c1n[nH]c2ncnc(N[C@@H]3CC[C@@H](O)[C@H]3O)c12 [Compound 41] | 10 to 100 nM | 100 to 1000 nM | 100 to 1000 nM |  |  |  |  | 
36 | C[C@@H](NC(=O)c1n[nH]c2ncnc(N[C@@H]3CCC[C@H]3O)c12)c1cc(F)ccc1F [Compound 7] | 10 to 100 nM | 10 to 100 nM | 10 to 100 nM |  |  |  |  | 
37 | O=C(c1n[nH]c2ncnc(N[C@@H]3CN(C4COC4)C[C@H]3O)c12)N1C[C@@H](F)C[C@@H]1c1cc(F)ccc1F [Compound 229, ((2R,4S)-2-(2,5-difluorophenyl)-4-fluoropyrrolidin-1-yl)(4-(((3R,4R)-4-hydroxy-1-(oxetan-3-yl)pyrrolidin-3-yl)amino)-1H-pyrazolo[3,4-d]pyrimidin-3-yl)methanone] | < 10 nM | < 10 nM | < 10 nM |  |  |  |  | 
38 | COc1c(F)cc(F)cc1[C@H]1C[C@H](F)CN1C(=O)c1n[nH]c2ncnc(N[C@@H]3CC[C@@H](O)[C@H]3O)c12 [Compound 219] | < 10 nM |  |  | < 10 nM | < 10 nM |  |  | 
39 | C[C@@H](NC(=O)c1n[nH]c2ncnc(N[C@@H]3COCC[C@H]3O)c12)c1cc(F)ccc1F [Compound 30] | 100 to 1000 nM | 10 to 100 nM | 100 to 1000 nM |  |  |  |  | 
40 | O=C(c1n[nH]c2ncnc(N[C@@H]3CCC[C@@H](O)[C@H]3O)c12)N1C[C@@H](F)C[C@@H]1c1cc(Cl)ccc1F [Compound 221] | < 10 nM | < 10 nM | < 10 nM |  |  |  |  | 
41 | O=C(NCc1cc(F)ccc1F)c1n[nH]c2ncnc(NC3CCC(O)C3O)c12 (stereo not drawn) [Compound 10] | 100 to 1000 nM |  |  | 100 to 1000 nM | > 1000 nM |  |  | 
